In patent US6159961A, “Cephem compounds” (Fujisawa Pharmaceutical Co., Ltd., priority 1995, dated 2000):
Converted amounts (≈) assume the structure as drawn. Where two headings read alike, the source gives them in different places.

Tests used:
E. faecalis = experiment: In vitro antibacterial activity (MIC), two-fold agar-plate dilution method, E. faecalis; format: cell-based; details: Enterococcus faecalis, HI-agar, 37° C., 20 hours, read-out: MIC (minimal inhibitory concentration)
Description: (§1) In vitro antibacterial activity were determined by the two-fold agar-plate dilution method as described below.
(§2) One loopful of an overnight culture of each test strain in Trypticase-soy broth (10^8 viable cells per ml) was streaked on heart infusion agar (HI-agar)containing graded concentrations of representative test compound, and the minimal inhibitory concentration (MIC) was expressed in terms of mg/ml after incubation at 37° C. for 20 hours.

[1] = Urinary excretion, bile excretion and plasma level after oral administration to rats; format: in vivo, Male JCL SD rats; details: rat, 20 mg/kg, fasted; for dose excreted at 24 h: 0-24 hours
Description: Male JCL SD atrain rats (age, 6 weeks) were used. Test compound was suspended in 0.5% methyl cellurose solution. The rats were atarved overnight before dosing with 20 mg /kg. Urine samples were collected at 0 to 6 and 6 to 24 hours after oral administration. Bile samples were collected at same interval as that of urine samples after a polyethylene cannula was inserted into the bile duct. Plasma samples were obtained by heart puncture at specified times after dosing. Concentrations of test compounds were measured by the disc-plate diffusion method using E. coli ATCC 39188 as test organism and nutrient agar (Difco) as the test medium. The diluents for standard curves were prepared with plasma from rat for determining the plasma levels, with 1/15 M phosphate buffer (pH7.0) for determining the urinary and biliary levels. The plate were incubated at 37° C. for 18 hours and the zone of inhibition were mesured and the recovery rate was calculated by comparing with the standard.

[2] = system: Methicillin susceptible S. aureus; experiment: In vitro antibacterial activity (MIC), two-fold agar-plate dilution method, methicillin susceptible S. aureus; format: cell-based; details: Staphylococcus aureus, HI-agar, 37° C., 20 hours, read-out: MIC (minimal inhibitory concentration)
Description: as §1, §2

[3] = bile, read-out: Biliary recovery in 24 hours
[4] = urine, read-out: Urinary recovery in 24 hours

MIC (E. faecalis) | dose excreted at 24 h [1, 3] | dose excreted at 24 h [1, 4] | MIC [2] | AUC ([1]; plasma) | Cmax ([1]; plasma) | Structure (SMILES)
2100 µg/mL (≈ 3980 µM) | 19.6% | 17% | 230 µg/mL (≈ 436 µM) | – | – | Nc1nc(/C(=N/O)C(=O)N[C@@H]2C(=O)N3C(C(=O)O)=C(SCc4cccnc4)CS[C@H]23)c(Cl)s1 [(2)]
2100 µg/mL (≈ 4060 µM) | 37.5% | 7.62% | 270 µg/mL (≈ 522 µM) | – | – | Nc1nc(/C(=N/O)C(=O)N[C@@H]2C(=O)N3C(C(=O)O)=C(SCc4cnn[nH]4)CS[C@H]23)c(Cl)s1 [(3)]
2900 µg/mL (≈ 5620 µM) | 29% | 39.7% | 250 µg/mL (≈ 485 µM) | 52900 ng·h/mL | 21800 ng/mL | Nc1nc(/C(=N/O)C(=O)N[C@@H]2C(=O)N3C(C(=O)O)=C(SCc4cn[nH]c4)CS[C@H]23)c(Cl)s1 [(1)]
